{"source": "patent US10342804B2", "about": "“Steroid compound for use in the treatment of hepatic encephalopathy” (Umecrine Cognition AB, priority 2014, dated 2019)", "format_in_all_cases": "in vivo, rat", "key": {"[1]": {"system": "PCS rats", "test": "Beam walking test, PCS rats (Example 8)", "experimental": "(§1) Male Wistar rats (220-240 g) were anesthetized with isoflurane, and an end-to side porta-caval anastomosis was performed as described by Lee and Fisher (Surgery, 1961, 50, 668-672).\n(§2) Rats that were subjected to the porta-caval anastomosis procedure are herein referred to as “PCS rats”.\n(§3) 3α-ethynyl-3β-hydroxyandrostan-17-one oxime in sesame oil was administered by subcutaneous injections in the back of the rats, once daily. Two different sets of experiments were performed in hyperammonemic rats. In the first set four groups of rats were used: 1) control rats injected with vehicle; 2) hyperammonemic rats injected with vehicle; 3) control rats injected with 20 mg/Kg of 3α-ethynyl-3β-hydroxyandrostan-17-one oxime and 4) hyperammonemic rats injected with 20 mg/Kg of 3α-ethynyl-3β-hydroxyandrostan-17-one oxime. […]\nMotor coordination was tested as described by Gonzalez-Usano et al (ACS Chemical Neuroscience, 2014, 19, 5(2), 100-105) using a wooden beam (20 mm diameter). Rats were made to traverse a one-meter-long wooden beam located approximately one meter above the ground, and the number of foot faults (slips) was recorded by two observers. The rats were trained for the test by being made to traverse the beam up to five times before measurements were recorded. […]"}, "[2]": {"system": "PCS rats", "test": "Morris water maze memory test, PCS rats (Example 9)", "experimental": "as §1, §2, §3\nThe test was carried out as described by Monfort et al. (European Journal of Neuroscience, 2007, 25, 2103-2111) using a circular pool (160 cm diameter, 40 cm height) arbitrarily divided into four quadrants. […] The time needed to find the hidden platform was recorded manually and used as a measure of learning of the task.\nSpatial memory was assessed 24 hours later by removing the platform and measuring the time spent by the rat in the quadrant where the platform was."}, "[3]": {"system": "hyperammonemic rats", "test": "Spatial learning in the Radial maze, chronic hyperammonemia model (Example 2)", "settings": "20 mg/kg s.c. once daily, 6th-7th week of treatment", "excerpt": "In this study an animal model of chronic hyperammonemia was used that reproduces many of the cognitive and motor alterations present in hepatic encephalopathy. Rats were fed with ammonia in their food and after two weeks with ammonia enriched food they developed symptoms of hepatic encephalopathy. The beam walking test was made during the 3rd and 4th week of 3α-ethynyl-3β-hydroxyandrostan-17-one oxime treatment while the Morris Water maze test was made during 4th-5th week of 3α-ethynyl-3β-hydroxyandrostan-17-one oxime treatment and the Radial maze test was made during 6th-7th week of 3α-ethynyl-3β-hydroxyandrostan-17-one oxime treatment.\nThe study was divided into two series with animals (male Wistar rats), each series included the following groups; Controls treated with vehicle (CV, n=8 per series), Controls treated with 3α-ethynyl-3β-hydroxyandrostan-17-one oxime (C+GAM, n=8 per series), hyperammonemic rats treated with vehicle (HAV, n=8 per series), hyperammonemic rats treated with 3α-ethynyl-3β-hydroxyandrostan-17-one oxime (HA+GAM, n=8 per series). […]\nTraining in the radial maze was composed of five blocks of three trials each, performed on ten consecutive days. […] The number of spatial reference errors and working memory were calculated and expressed as number of reference and working errors per block. […]"}, "[4]": {"system": "PCS rats", "test": "Circadian rhythms of spontaneous locomotor activity (actimeter), PCS rats (Example 11)", "experimental": "as §1, §2\n3α-ethynyl-3β-hydroxyandrostan-17-one oxime in sesame oil was administered by subcutaneous injections in the back of the rats, once daily. Two different sets of experiments were performed in hyperammonemic rats. In the first set four groups of rats were used: 1) control rats injected with vehicle; 2) hyperammonemic rats injected with vehicle; 3) control rats injected with 20 mg/Kg of 3α-ethynyl-3β-hydroxyandrostan-17-one oxime and 4) hyperammonemic rats injected with 20 mg/Kg of 3α-ethynyl-3β-hydroxyandrostan-17-one oxime.\nFor the experiments using PCS rats, the following groups of rats were used: 1) Sham rats injected with vehicle; 2) PCS rats injected with vehicle; 3-4) PCS rats injected with 0.7 or 2.5 mg/Kg of 3α-ethynyl-3β-hydroxyandrostan-17-one oxime. The number of rats used in each experiment is either shown in the corresponding Figure or given in the description of the corresponding Figure.\nMotor activity was measured using an actimeter (Med Associates, S t. Albans, Vt.). Rats were placed individually in an open-field activity chamber (43×43×31 cm), and motor activity was recorded continuously for 14 days in conditions of light-dark (L:D), 12 h:12 h. Data were recorded at intervals of 5 minutes. Motor activity was detected by arrays of infrared motion detectors, placed in three directions, x, y and z. One ambulatory count is recorded by the apparatus when the rat interrupts three consecutive infrared detectors, in x or y position. A vertical count is recorded when rat interrupts infrared detectors in z position. The software allows measuring different parameter of motor activity, such as ambulatory counts or vertical counts (Ahabrach et al. Journal of Neuroscience Research, 2010, 88, 1605-14)."}}}
{"smiles": "C#C[C@]1(O)CC[C@@]2(C)C(CC[C@@H]3[C@@H]2CC[C@]2(C)/C(=N\\O)CC[C@@H]32)C1", "note": "(stereo partly drawn) [3α-ethynyl-3β-hydroxyandrostan-17-one oxime]", "values": [{"measurement": "Number of slips, beam walking test", "setting": "[1]; 0.7 mg/kg s.c. once daily", "result": "0.75±0.10", "unit": "slips"}, {"measurement": "Number of slips, beam walking test", "setting": "[1]; 2.5 mg/Kg s.c. once daily", "result": "0.8±0.1", "unit": "slips"}, {"measurement": "Percentage of time spent in the correct quadrant, Morris water maze memory test", "setting": "[2]; 0.7 mg/kg", "result": "34±4", "unit": "%"}, {"measurement": "Percentage of time spent in the correct quadrant, Morris water maze memory test", "setting": "[2]; 2.5 mg/kg", "result": "39±3", "unit": "%"}, {"measurement": "Spatial learning/memory in the Radial maze (working errors)", "setting": "[3]", "result": "completely restored"}, {"measurement": "Motor activity (ambulatory counts) during the night", "setting": "[4]; 0.7 mg/kg", "result": "2652±275", "unit": "counts"}, {"measurement": "Night/day ratio of ambulatory activity", "setting": "[4]; 0.7 mg/kg", "result": "1.7±0.2"}, {"measurement": "Night/day ratio of vertical activity", "setting": "[4]; 0.7 mg/kg", "result": "2.1±0.4"}, {"measurement": "Vertical activity during the day", "setting": "[4]; 0.7 mg/kg", "result": "339±47", "unit": "counts"}, {"measurement": "Vertical activity during the night", "setting": "[4]; 0.7 mg/kg", "result": "664±121", "unit": "counts"}, {"measurement": "Motor activity (ambulatory counts) during the night", "setting": "[4]; 2.5 mg/kg", "result": "2235±170", "unit": "counts"}, {"measurement": "Night/day ratio of ambulatory activity", "setting": "[4]; 2.5 mg/kg", "result": "1.6±0.3"}, {"measurement": "Night/day ratio of vertical activity", "setting": "[4]; 2.5 mg/kg", "result": "1.9±0.6"}, {"measurement": "Vertical activity during the day", "setting": "[4]; 2.5 mg/kg", "result": "424±44", "unit": "counts"}, {"measurement": "Vertical activity during the night", "setting": "[4]; 2.5 mg/kg", "result": "695±185", "unit": "counts"}]}
